Consider twelve compounds from PMC6920704, “1-(Piperidin-3-yl)thymine amides as inhibitors of M. tuberculosis thymidylate kinase” (Journal of Enzyme Inhibition and Medicinal Chemistry, 2019).

For one test, the target named is T1, MtbTMPK (M. tuberculosis thymidylate kinase) (Mycobacterium tuberculosis, UniProt P9WKE1).
T1 construct: gene tmk
T1 sequence (P9WKE1 whole entry, looked up): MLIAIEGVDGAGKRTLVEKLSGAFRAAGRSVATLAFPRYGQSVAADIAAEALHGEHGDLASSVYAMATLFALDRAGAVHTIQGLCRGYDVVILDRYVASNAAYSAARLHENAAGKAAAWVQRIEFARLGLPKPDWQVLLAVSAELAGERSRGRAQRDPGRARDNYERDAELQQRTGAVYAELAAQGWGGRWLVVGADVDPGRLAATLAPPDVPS
Nature of the test: coupled spectrophotometric assay (NADH, […] nm). The class given is biochemical. The following applies: read-out: IC50MtbTMPK.
For the compound `Cc1cn(C2CCCN(C(=O)c3cccc(Oc4cccc(N(C)C)c4)c3)C2)c(=O)[nH]c1=O` (stereo not drawn) [4a], the IC50 turned out to be 39 ± 3 µM.

Turning to `Cc1cn(C2CCCN(C(=O)c3cccc(Oc4cccc(C(F)(F)F)c4)c3)C2)c(=O)[nH]c1=O` (stereo not drawn) [4f], the IC50 stood at 53 ± 12 µM.

With `Cc1cn(C2CCCN(C(=O)c3cccc(Oc4cc(Cl)cc(Cl)c4)c3)C2)c(=O)[nH]c1=O` (stereo not drawn) [4i], the IC50 was determined as 13 ± 1 µM.

`Cc1cn(C2CCCN(C(=O)c3cccc(Oc4ccccc4)c3)C2)c(=O)[nH]c1=O` (racemic) [compound 3, 3]: the IC50 amounted to 28 ± 2 µM.

For `Cc1cn(C2CCCN(C(=O)c3cccc(Oc4ccc(F)c(F)c4)c3)C2)c(=O)[nH]c1=O` (stereo not drawn) [4h], the IC50 was determined as 23 ± 1 µM.

`Cc1cn(C2CCCN(C(=O)c3cccc(Oc4ccc(F)cc4)c3)C2)c(=O)[nH]c1=O` (stereo not drawn) [4d]: the IC50 is 18 ± 1 µM.

On to `Cc1cn(C2CCCN(C(=O)c3cccc(Oc4ccc(Cl)c(Cl)c4)c3)C2)c(=O)[nH]c1=O` (stereo not drawn) [4g], for which the IC50 is 18 ± 1 µM.

Turning to `COc1cccc(Oc2cccc(C(=O)N3CCCC(n4cc(C)c(=O)[nH]c4=O)C3)c2)c1` (stereo not drawn) [4b], the IC50 worked out at 15 ± 1 µM.

For the compound `Cc1cn(C2CCCN(C(=O)c3cccc(Oc4ccc(Cl)cc4)c3)C2)c(=O)[nH]c1=O` (stereo not drawn) [4c], the IC50 worked out at 39 ± 19 µM.

For the compound `Cc1cn(C2CCCN(C(=O)c3cccc(Oc4ccc([N+](=O)[O-])cc4)c3)C2)c(=O)[nH]c1=O` (stereo not drawn) [4e], the IC50 was 30 ± 3 µM.

Turning to `Cc1cn(C2CCCN(C(=O)c3cccc(Oc4cc(F)cc(F)c4)c3)C2)c(=O)[nH]c1=O` (stereo not drawn) [4j], the IC50 amounted to 31 ± 2 µM.

In a further test the target is T1, MtbTMPK (M. tuberculosis thymidylate kinase). The test is described as follows: coupled spectrophotometric assay (NADH, […] nm). In kind it is biochemical. The note with it: 0.5 mM ATP, 0.05 mM dTMP, 2 mM MgCl2, 50 mM KCl, 50 mM Tris-HCl pH 7.4, 30 °C; unreliable (above the highest tested concentration of 0.12 mM).
Take `Cc1cn(C2CCCN(C(=O)c3cccc(Oc4cc(C(F)(F)F)cc(C(F)(F)F)c4)c3)C2)c(=O)[nH]c1=O` (stereo not drawn) [4k]: the “IC50MtbTMPK” value was 158 ± 89 µM.
